What was measured:
Experiment in all cases: relative viability (nuclei count vs DMSO), 5 days (fraction); higher = more cells survive
[1] = tested on: NCI-H1793
Outline: (§1)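 After 5 days of treatment, lung cancer cells in 1536-well plates were fixed and stained in a single step (final 0.05% Triton X-100, 1% formaldehyde, 1 ug/ml Hoechst) and their nuclei counted on 4× images. Treatment had been applied by pin tool the day after seeding as one drug alone or as a fixed anchor-drug dose with five library-drug doses (not always all listed) in √10 steps. Relative viability is the nuclei count of treated wells divided by that of vehicle wells, and values are medians of duplicate plates.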

[2] = tested on: ChaGo-K-1
Outline: as §1

[3] = tested on: HCC-15
Outline: as §1

[4] = tested on: NCI-H1993
Outline: as §1

[5] = tested on: ABC-1
Outline: as §1

[6] = tested on: NCI-H1944
Outline: as §1

[7] = tested on: HARA
Outline: as §1

[8] = tested on: SK-LU-1
Outline: as §1

[9] = tested on: NCI-H2126
Outline: as §1

[10] = tested on: LC-2-ad
Outline: as §1

[11] = tested on: NCI-H1734
Outline: as §1

Work on NC(=O)Nc1cc(-c2cccc(F)c2)sc1C(=O)N[C@H]1CCCNC1 [AZD7762] + CCNC(=O)c1noc(-c2cc(C(C)C)c(O)cc2O)c1-c1ccc(CN2CCOCC2)cc1 [Luminespib] (partner 0.01 µM) yielded a relative viability ([1]; first compound 0.01 µM) of 0.175, a relative viability ([1]; first compound 0.03162 µM) of 0.195 and a relative viability ([1]; first compound 0.1 µM) of 0.163. The relative viability ([1]; first compound 0.3162 µM) was 0.403, the relative viability ([1]; first compound 1 µM) was 0.179 and the relative viability ([2]; first compound 0.01 µM) was 0.601. For the same compound, the relative viability ([2]; first compound 0.03162 µM) was 0.578, the relative viability ([2]; first compound 0.1 µM) was 0.692 and the relative viability ([2]; first compound 0.3162 µM) was 0.513. The relative viability ([2]; first compound 1 µM) was 0.354, the relative viability ([3]; first compound 0.01 µM) was 0.309 and the relative viability ([3]; first compound 0.03162 µM) was 0.304. The relative viability ([3]; first compound 0.1 µM) was 0.234, the relative viability ([3]; first compound 0.3162 µM) was 0.163 and the relative viability ([3]; first compound 1 µM) was 0.315. For the same compound, the relative viability ([4]; first compound 0.01 µM) was 1.04, the relative viability ([4]; first compound 0.03162 µM) was 0.948 and the relative viability ([4]; first compound 0.1 µM) was 0.81. For the same compound, the relative viability ([4]; first compound 0.3162 µM) was 0.971, the relative viability ([4]; first compound 1 µM) was 0.678 and the relative viability ([5]; first compound 0.01 µM) was 0.545. It also gave a relative viability ([5]; first compound 0.03162 µM) of 0.787, a relative viability ([5]; first compound 0.1 µM) of 0.361 and a relative viability ([5]; first compound 0.3162 µM) of 0.374. For the same compound, the relative viability ([5]; first compound 1 µM) was 0.305, the relative viability ([6]; first compound 0.01 µM) was 0.85 and the relative viability ([6]; first compound 0.03162 µM) was 0.838. The relative viability ([6]; first compound 0.1 µM) was 0.871, the relative viability ([6]; first compound 0.3162 µM) was 0.82 and the relative viability ([6]; first compound 1 µM) was 0.689. For the same compound, the relative viability ([7]; first compound 0.01 µM) was 1.02, the relative viability ([7]; first compound 0.03162 µM) was 0.71 and the relative viability ([7]; first compound 0.1 µM) was 0.604. It also gave a relative viability ([7]; first compound 0.3162 µM) of 0.471, a relative viability ([7]; first compound 1 µM) of 0.12 and a relative viability ([8]; first compound 0.01 µM) of 0.193. For the same compound, the relative viability ([8]; first compound 0.03162 µM) was 0.209, the relative viability ([8]; first compound 0.1 µM) was 0.192 and the relative viability ([8]; first compound 0.3162 µM) was 0.206. For the same compound, the relative viability ([8]; first compound 1 µM) was 0.123, the relative viability ([9]; first compound 0.01 µM) was 0.922 and the relative viability ([9]; first compound 0.03162 µM) was 0.914. The relative viability ([9]; first compound 0.1 µM) was 0.833, the relative viability ([9]; first compound 0.3162 µM) was 0.802 and the relative viability ([9]; first compound 1 µM) was 0.456. It also gave a relative viability ([10]; first compound 0.01 µM) of 1.27, a relative viability ([10]; first compound 0.03162 µM) of 1.09 and a relative viability ([10]; first compound 0.1 µM) of 1.05. It also gave a relative viability ([10]; first compound 0.3162 µM) of 0.991, a relative viability ([10]; first compound 1 µM) of 0.646 and a relative viability ([11]; first compound 0.01 µM) of 0.219. The relative viability ([11]; first compound 0.03162 µM) was 0.219.
